Values of other authors as cited in US20220166043A1, “NEGATIVE ELECTRODE ELECTROLYTE SOLUTION FOR REDOX FLOW BATTERIES, AND REDOX FLOW BATTERY” (ARM Technologies Co., Ltd., priority 2019, published 2022).
Several values for one entry are separate records, joined by “and”; a condition that tells them apart may be missing. Equal entries are not always repeated. Where two headings read alike, the source gives them in different places.

Settings: octanol-water partition coefficient of the negative electrode solvent

Negative electrode solvent LogP (Log POW)	Molecule	Negative electrode solvent LogP (Log POW) (listed as PP13 TFSI)
1.402 and 1.40	Cc1cnc(C)c(C)n1 [2,3,5-trimethylpyrazine]	
3.42	c1ccc(COCCOCc2ccccc2)cc1 [EGDBE, ethylene glycol dibenzyl ether]	
1.575 and 1.58	COC1CCCC1 [MCP, methoxycyclopentane]	

Molecule	Negative electrode solvent LogP (Log POW)	Negative electrode solvent LogP (Log POW) (listed as PP13 TFSI)
1-methyl-1-propylpyrrolidinium bis(trifluoromethanesulfonyl)imide	4.82	4.8165
